pIC50: −log10 of the molar value.
Molecular target: ROCK2 (Homo sapiens (Human), UniProt O75116)
Assay: ROCK2 assay (peptide phosphorylation, LABCHIP 3000 Reader)
Type: biochemical
Settings: 5 μM ATP, 1.5 μM peptide substrate, dose-response
Protocol: After incubation, the reaction was terminated by the addition of EDTA and the phosphorylated and non-phosphorylated peptides separated using a LABCHIP®3000 Reader (Caliper Life Sciences). […] Compounds were tested in dose-response format, and the inhibition of kinase activity was calculated at each concentration of compound. […] Representative Examples were tested in the ROCK2 assay described above and found having ROCK2 inhibitory activity.

ROCK2, sequence (O75116 whole entry, species assumed): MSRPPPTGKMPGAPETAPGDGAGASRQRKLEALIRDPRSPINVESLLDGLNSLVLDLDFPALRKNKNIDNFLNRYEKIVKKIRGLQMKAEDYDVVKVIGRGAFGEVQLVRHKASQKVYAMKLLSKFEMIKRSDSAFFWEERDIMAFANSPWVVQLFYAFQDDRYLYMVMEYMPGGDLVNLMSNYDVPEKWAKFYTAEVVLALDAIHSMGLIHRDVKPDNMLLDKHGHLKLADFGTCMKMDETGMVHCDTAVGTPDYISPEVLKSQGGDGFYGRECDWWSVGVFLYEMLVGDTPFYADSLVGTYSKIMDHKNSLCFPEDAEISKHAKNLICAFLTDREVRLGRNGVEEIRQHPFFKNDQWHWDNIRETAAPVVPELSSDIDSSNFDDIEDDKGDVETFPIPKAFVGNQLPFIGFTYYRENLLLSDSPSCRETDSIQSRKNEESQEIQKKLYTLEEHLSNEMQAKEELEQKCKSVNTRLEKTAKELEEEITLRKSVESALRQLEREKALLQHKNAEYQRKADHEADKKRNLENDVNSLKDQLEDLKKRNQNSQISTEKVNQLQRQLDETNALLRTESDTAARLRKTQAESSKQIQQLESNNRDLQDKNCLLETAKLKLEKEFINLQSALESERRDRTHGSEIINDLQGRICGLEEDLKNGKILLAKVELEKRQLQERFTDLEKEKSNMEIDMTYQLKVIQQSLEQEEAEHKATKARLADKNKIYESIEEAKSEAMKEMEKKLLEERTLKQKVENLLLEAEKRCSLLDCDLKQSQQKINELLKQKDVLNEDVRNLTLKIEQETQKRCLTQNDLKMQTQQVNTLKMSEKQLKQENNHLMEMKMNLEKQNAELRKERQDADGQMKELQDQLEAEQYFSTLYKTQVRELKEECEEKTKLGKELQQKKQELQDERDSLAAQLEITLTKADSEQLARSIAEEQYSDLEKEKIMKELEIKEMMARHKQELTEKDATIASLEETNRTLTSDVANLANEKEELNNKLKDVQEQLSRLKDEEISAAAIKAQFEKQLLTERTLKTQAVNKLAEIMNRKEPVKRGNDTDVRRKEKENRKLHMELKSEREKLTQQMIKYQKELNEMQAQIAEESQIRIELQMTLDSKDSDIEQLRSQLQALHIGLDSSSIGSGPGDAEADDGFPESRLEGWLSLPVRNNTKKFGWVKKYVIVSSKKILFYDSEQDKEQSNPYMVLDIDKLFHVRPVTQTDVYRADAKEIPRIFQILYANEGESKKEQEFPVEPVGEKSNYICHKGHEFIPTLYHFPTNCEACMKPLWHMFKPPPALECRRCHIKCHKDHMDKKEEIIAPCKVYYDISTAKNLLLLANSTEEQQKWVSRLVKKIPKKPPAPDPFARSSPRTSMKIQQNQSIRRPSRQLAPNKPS

Row | Structure (SMILES) | pIC50
1 | NC(=O)c1cn(C2CC2)nc1O[C@H]1C[C@]2(C1)C[C@H](N1C(=O)NC(Cc3ccccc3)C1=O)C2 (stereo partly drawn) [Example 104, 1-cyclopropyl-3-{[(aR)-6-(4-benzyl-2,5-dioxoimidazolidin-1-yl)spiro[3.3]heptan-2-yl]oxy}-1H-pyrazole-4-carboxamide] | 5.69
2 | CC(C)C1NC(=O)N([C@H]2C[C@@]3(C[C@H](Oc4nc(C5CC5)sc4C(N)=O)C3)C2)C1=O (stereo partly drawn) [Example 106, 2-cyclopropyl-4-{[(aR)-6-[2,5-dioxo-4-(propan-2-yl)imidazolidin-1-yl]spiro[3.3]heptan-2-yl]oxy}-1,3-thiazole-5-carboxamide] | 6.23
3 | NC(=O)c1sc(C2CC2)nc1O[C@H]1C[C@]2(C1)C[C@H](N1C(=O)NC(Cc3cccnc3)C1=O)C2 (stereo partly drawn) [Example 107, 2-cyclopropyl-4-{[(aR)-6-{2,5-dioxo-4-[(pyridin-3-yl)methyl]imidazolidin-1-yl}spiro[3.3]heptan-2-yl]oxy}-1,3-thiazole-5-carboxamide] | 5.74
4 | CCC1NC(=O)N([C@H]2C[C@@]3(C[C@H](Oc4nc(C5CC5)sc4C(N)=O)C3)C2)C1=O (stereo partly drawn) [Example 108, 2-cyclopropyl-4-{[(aR)-6-(4-ethyl-2,5-dioxoimidazolidin-1-yl)spiro[3.3]heptan-2-yl]oxy}-1,3-thiazole-5-carboxamide] | 5.73
5 | COc1nc(O[C@H]2CC3(C[C@H](NC(=O)c4cnn(-c5ccc(C#N)cc5)c4C)C3)C2)c(C(N)=O)s1 (stereo partly drawn) [Example 112, 4-(((2S,4s,6)-6-(1-(4-cyanophenyl)-5-methyl-1H-pyrazole-4-carboxamido)spiro[3.3]heptan-2-yl)oxy)-2-methoxythiazole-5-carboxamide] | 6.69
6 | Cc1c(C(=O)N[C@H]2C[C@]3(C2)C[C@H](Oc2nn4ccccc4c2C(N)=O)C3)cnn1-c1ccc(C#N)cc1 (stereo partly drawn) [Example 118, 1-(4-cyanophenyl)-5-methyl-N-[(4s)-6-({3-carbamoylpyrazolo[1,5-a]pyridin-2-yl}oxy)spiro[3.3]heptan-2-yl]-1H-pyrazole-4-carboxamide] | 6.19
7 | Cc1c(C(=O)N[C@H]2C[C@]3(C2)C[C@H](Oc2nn4ccccc4c2C(N)=O)C3)cnn1-c1ccc(Cl)cc1 (stereo partly drawn) [Example 119, 1-(4-chlorophenyl)-5-methyl-N-[(4s)-6-({3-carbamoylpyrazolo[1,5-a]pyridin-2-yl}oxy)spiro[3.3]heptan-2-yl]-1H-pyrazole-4-carboxamide] | 6.45
8 | Cc1c(C(=O)N[C@H]2C[C@]3(C2)C[C@H](Oc2nn4ccccc4c2C(N)=O)C3)cnn1-c1ccc(C(F)(F)F)cn1 (stereo partly drawn) [Example 120, 5-methyl-N-[(4s)-6-({3-carbamoylpyrazolo[1,5-a]pyridin-2-yl}oxy)spiro[3.3]heptan-2-yl]-1-[5-(trifluoromethyl)pyridin-2-yl]-1H-pyrazole-4-carboxamide] | 6.09
9 | CC(C)(O)COc1ccc2c(C(=O)N[C@H]3C[C@]4(C3)C[C@H](Oc3nn5ccccc5c3C(N)=O)C4)nn(C(F)F)c2c1 (stereo partly drawn) [Example 121, 1-(difluoromethyl)-6-(2-hydroxy-2-methylpropoxy)-N-[(4s)-6-({3-carbamoylpyrazolo[1,5-a]pyridin-2-yl}oxy)spiro[3.3]heptan-2-yl]-1H-indazole-3-carboxamide] | 7.74
10 | NC(=O)c1c(O[C@H]2C[C@@]3(C[C@H](NC(=O)c4cnn5cc(OCC(O)(C(F)(F)F)C(F)(F)F)ccc45)C3)C2)nn2ccccc12 (stereo partly drawn) [Example 123, 2-{[(4s)-6-{6-[3,3,3-trifluoro-2-hydroxy-2-(trifluoromethyl)propoxy]pyrazolo[1,5-a]pyridine-3-amido}spiro[3.3]heptan-2-yl]oxy}pyrazolo[1,5-a]pyridine-3-carboxamide] | 6.62
11 | COc1ccc2c(C(N)=O)c(O[C@H]3C[C@@]4(C[C@H](NC(=O)c5nn(C(F)F)c6cc(OCC(C)(C)O)ccc56)C4)C3)nn2c1 (stereo partly drawn) [Example 124, 1-(difluoromethyl)-6-(2-hydroxy-2-methylpropoxy)-N-[(4s)-6-({3-carbamoyl-6-methoxypyrazolo[1,5-a]pyridin-2-yl}oxy)spiro[3.3]heptan-2-yl]-1H-indazole-3-carboxamide] | 7.04
12 | COc1ccc2c(C(N)=O)c(O[C@H]3C[C@@]4(C[C@H](NC(=O)c5cnn6cc(OCC(F)F)ccc56)C4)C3)nn2c1 (stereo partly drawn) [Example 125, 6-methoxy-2-{[(4s)-6-[6-(2,2-difluoroethoxy)pyrazolo[1,5-a]pyridine-3-amido]spiro[3.3]heptan-2-yl]oxy}pyrazolo[1,5-a]pyridine-3-carboxamide] | 6.50

More lines, in order of rising pIC50, values ahead:

Row | pIC50 | Structure (SMILES)
13 | 6.88 | CC(C)CC1NC(=O)N([C@H]2C[C@@]3(C[C@H](Oc4nn(C5CC5)cc4C(N)=O)C3)C2)C1=O (stereo partly drawn) [Example 105, 1-cyclopropyl-3-{[(aR)-6-[4-(2-methylpropyl)-2,5-dioxoimidazolidin-1-yl]spiro[3.3]heptan-2-yl]oxy}-1H-pyrazole-4-carboxamide]
14 | 6.90 | Cc1sc2cc(C(N)=O)c(O[C@H]3C[C@@]4(C[C@H](NC(=O)c5cnc6ccc(F)cc6c5)C4)C3)nc2c1C (stereo partly drawn) [Example 96, 6-fluoro-N-[(aR)-6-({6-carbamoyl-2,3-dimethylthieno[3,2-b]pyridin-5-yl}oxy)spiro[3.3]heptan-2-yl]quinoline-3-carboxamide]
15 | 6.93 | NC(=O)c1c(O[C@H]2C[C@@]3(C[C@H](NC(=O)c4cnn5cc(OCC(F)F)ccc45)C3)C2)nn2ccccc12 (stereo partly drawn) [Example 122, 2-{[(4s)-6-[6-(2,2-difluoroethoxy)pyrazolo[1,5-a]pyridine-3-amido]spiro[3.3]heptan-2-yl]oxy}pyrazolo[1,5-a]pyridine-3-carboxamide]
16 | 6.94 | COc1nc(O[C@H]2C[C@@]3(C[C@H](NC(=O)c4cnn(-c5ccc(C(F)(F)F)cn5)c4C)C3)C2)c(C(N)=O)s1 (stereo partly drawn) [Example 114, 2-methoxy-4-{[(4s)-6-{5-methyl-1-[5-(trifluoromethyl)pyridin-2-yl]-1H-pyrazole-4-amido}spiro[3.3]heptan-2-yl]oxy}-1,3-thiazole-5-carboxamide]
17 | 7.15 | COc1nc(O[C@H]2C[C@@]3(C[C@H](NC(=O)c4cnn5cc(OCC(O)(C(F)(F)F)C(F)(F)F)ccc45)C3)C2)c(C(N)=O)s1 (stereo partly drawn) [Example 116, 2-methoxy-4-{[(4s)-6-{6-[3,3,3-trifluoro-2-hydroxy-2-(trifluoromethyl)propoxy]pyrazolo[1,5-a]pyridine-3-amido}spiro[3.3]heptan-2-yl]oxy}-1,3-thiazole-5-carboxamide]
18 | 7.17 | Cc1csc2cc(C(N)=O)c(O[C@H]3C[C@@]4(C[C@H](NC(=O)c5cnc6ccc(F)cc6c5)C4)C3)nc12 (stereo partly drawn) [Example 99, 6-fluoro-N-[(aR)-6-({6-carbamoyl-3-methylthieno[3,2-b]pyridin-5-yl}oxy)spiro[3.3]heptan-2-yl]quinoline-3-carboxamide]
19 | 7.23 | COc1nc(O[C@H]2C[C@@]3(C[C@H](NC(=O)c4cnn5cc(OCC(F)(F)F)ccc45)C3)C2)c(C(N)=O)s1 (stereo partly drawn) [Example 117, 2-methoxy-4-{[(4s)-6-[6-(2,2,2-trifluoroethoxy)pyrazolo[1,5-a]pyridine-3-amido]spiro[3.3]heptan-2-yl]oxy}-1,3-thiazole-5-carboxamide]
20 | 7.27 | COc1nc(O[C@H]2C[C@@]3(C[C@H](NC(=O)c4cnn(-c5ccc(Cl)cc5)c4C)C3)C2)c(C(N)=O)s1 (stereo partly drawn) [Example 113, 2-methoxy-4-{[(4s)-6-[1-(4-chlorophenyl)-5-methyl-1H-pyrazole-4-amido]spiro[3.3]heptan-2-yl]oxy}-1,3-thiazole-5-carboxamide]
21 | 7.44 | NC(=O)c1cc2c(nc1O[C@H]1C[C@@]3(C[C@H](NC(=O)c4cnc5ccc(F)cc5c4)C3)C1)CCOC2 (stereo partly drawn) [Example 100, 6-fluoro-N-[(aR)-6-({3-carbamoyl-5H,7H,8H-pyrano[4,3-b]pyridin-2-yl}oxy)spiro[3.3]heptan-2-yl]quinoline-3-carboxamide]
22 | 7.51 | COc1nc(O[C@H]2C[C@@]3(C[C@H](NC(=O)c4cnn5cc(OCC(F)F)ccc45)C3)C2)c(C(N)=O)s1 (stereo partly drawn) [Example 115, 2-methoxy-4-{[(4s)-6-[6-(2,2-difluoroethoxy)pyrazolo[1,5-a]pyridine-3-amido]spiro[3.3]heptan-2-yl]oxy}-1,3-thiazole-5-carboxamide]
23 | 7.59 | Cc1csc2cc(C(N)=O)c(O[C@H]3C[C@@]4(C[C@H](NC(=O)c5cccc(C#N)c5)C4)C3)nc12 (stereo partly drawn) [Example 98, 3-methyl-5-{[(aR)-6-(3-cyanobenzamido)spiro[3.3]heptan-2-yl]oxy}thieno[3,2-b]pyridine-6-carboxamide]
24 | 7.92 | Cc1csc2cc(C(N)=O)c(O[C@H]3C[C@@]4(C[C@H](NC(=O)c5cnn6cc(OCC(C)(C)O)ccc56)C4)C3)nc12 (stereo partly drawn) [Example 97, 3-methyl-5-{[(aR)-6-[6-(2-hydroxy-2-methylpropoxy)pyrazolo[1,5-a]pyridine-3-amido]spiro[3.3]heptan-2-yl]oxy}thieno[3,2-b]pyridine-6-carboxamide]
25 | 8.10 | Cn1ncc2cc(C(N)=O)c(O[C@H]3C[C@@]4(C[C@H](NC(=O)c5cccc(C#N)c5)C4)C3)nc21 (stereo partly drawn) [Example 102, 1-methyl-6-{[(aR)-6-(3-cyanobenzamido)spiro[3.3]heptan-2-yl]oxy}-1H-pyrazolo[3,4-b]pyridine-5-carboxamide]
26 | 8.22 | Cn1ncc2cc(C(N)=O)c(O[C@H]3C[C@@]4(C[C@H](NC(=O)c5cnn6cc(OCC(C)(C)O)ccc56)C4)C3)nc21 (stereo partly drawn) [Example 101, 1-methyl-6-{[(aR)-6-[6-(2-hydroxy-2-methylpropoxy)pyrazolo [1,5-a]pyridine-3-amido]spiro[3.3]heptan-2-yl]oxy}-1H-pyrazolo[3,4-b]pyridine-5-carboxamide]
27 | 8.30 | Cn1ncc2cc(C(N)=O)c(O[C@H]3C[C@@]4(C[C@H](NC(=O)c5cnc6ccc(F)cc6c5)C4)C3)nc21 (stereo partly drawn) [Example 103, 6-fluoro-N-[(aR)-6-({5-carbamoyl-1-methyl-1H-pyrazolo[3,4-b]pyridin-6-yl}oxy)spiro[3.3]heptan-2-yl]quinoline-3-carboxamide]

— patent US11078197B2, “5-membered and bicyclic heterocyclic amides as inhibitors of rock” (BRISTOL-MYERS SQUIBB COMPANY, priority 2017, dated 2021)
